# Values quoted from earlier work, collected in patent US20250099444A1, “Methods of Treating a Subject for Long-Haul COVID-19, and Compositions for Use in the Same” (IncellDx, Inc., priority 2022, published 2025).
# Tested on: R5-tropic HIV-1
smiles,measurement,setting,value
"Cc1nnc(C(C)C)n1[C@@H]1C[C@H]2CC[C@@H](C1)N2CC[C@H](NC(=O)C1CCC(F)(F)CC1)c1ccccc1 [maraviroc, 4,4-difluoro-N-[(1S)-3-[(1S,5R)-3-(3-methyl-5-propan-2-yl-1,2,4-triazol-4-yl)-8-azabicyclo[3.2.1]octan-8-yl]-1-phenylpropyl]cyclohexane-1-carboxamide]",incidence of hepatoxicity (MOTIVATE study),96 weeks of treatment at 300 mg B.I.D,low incidence of hepatoxicity
same,"death and other health threats, long-term follow-up of MOTIVATE trials",">5 year follow-up, HIV patients",limited instances of death and other health threats such as hepatic failure and myocardial infarctions
same,HIV viral loads (MOTIVATE 1 and MOTIVATE 2),individuals with R5-tropic HIV-1,lower levels of HIV viral loads
